# Key:
# TNF-alpha = test: RT-qPCR of pro-inflammatory cytokine TNF-alpha in HLO; format: cell-based, human; settings: 200 μM or 800 μM OA, normalized by 18S
# Description: (§1) RNA isolation, RT-qPCR. RNA was isolated using the RNeasy mini kit (Qiagen, Hilden, Germany). Reverse transcription was carried out using the SuperScriptIII First-Strand Synthesis System for RT-PCR (Invitrogen, CA, USA) according to manufacturer's protocol. qPCR was carried out using TaqMan gene expression master mix (Applied Biosystems) on a QuantStudio 3 Real-Time PCR System (Thermo Fisher Scientific Inc.). All primers and probe information for each target gene was obtained from the Universal ProbeLibrary Assay Design Center (https://qpcr.probefinder.com/organism.jsp). Significance testing was conducted by Student's t-test.
# P3NP = P3NP ELISA of HLO culture supernatant; format: cell-based, human; settings: 800 μM OA, day 5
# Description: (§2) Albumin, IL-6, and P3NP ELISA. To measure albumin secretion level of HLO, 200 μL of culture supernatant was collected from HLO embedded in Matrigel. For IL-6 and P3NP, 20-30 organoids were seeded and cultured on an ultra-low attachment multiwell plates 96 well plate (Corning). To define the exact number of organoids in each well and lastly normalize the secreted level for IL-6 and P3NP by the number, the organoids were captured on The KEYENCE BZ-X710 Fluorescence Microscope. The culture supernatants were collected at 24 hrs (for albumin), 96 hrs (for IL-6) and 120 hrs (P3NP) time points after the culture and stored at −80° C. until use. The supernatant was centrifuged at 1,500 rpm for 3 min and to pellet debris, and the resulting supernatant was assayed with Human Albumin ELISA Quantitation Set (Bethyl Laboratories, Inc., TX, USA), Human IL-6 ELISA Kit (Biolegend, CA, USA), and Human N-terminal procollagen III propeptide, PIIINP ELISA Kit (My BioSource, CA, USA) according to the manufacturer's instructions. Significance testing was conducted by Student's t-test.
# IL-8 = test: RT-qPCR of pro-inflammatory cytokine IL-8 in HLO; format: cell-based, human; settings: 200 μM or 800 μM OA, normalized by 18S
# Description: as §1
# IL-6 = IL-6 ELISA of HLO culture supernatant; format: cell-based, human; settings: 800 μM OA treated sHLO culture media
# Description: as §2
# [1] = tested on: human liver organoid (HLO); test: Triglyceride assay; format: cell-based; settings: 800 μM OA, 3 days
# Description: Triglyceride assay. For quantitative determination of triglycerides, HLO were isolated from one Matrigel drop and divided into HCM media in the presence or absence of oleic acid (800 μM). They were cultured on an ultra-Low attachment 6 multi-well plate for three days. Quantitative estimation of hepatic triglyceride accumulation was performed by an enzymatic assay of triglyceride mass using the EnzyChrom Triglyceride assay kit (Bioassay Systems, CA, USA).
# [2] = tested on: human liver organoid (HLO); test: Lipids live-cell imaging (BODIPY, membrane dye) of FFA treated HLO; format: cell-based; settings: for effectiveness in inducing lipid accumulation among FFAs (OA, LA, PA, SA): 800 μM, 3 days after FFA exposure, BODIPY
# Source text: Currently, free fatty acids (FFA) are widely used as an initiating factor to establish an in vitro lipotoxic hepatocyte model; however, fat accumulation is the only phenotype (Kanuri and Bergheim, 2013). […] Given the presence of hepatocyte-, stellate- and Kupffer-like cells with lipid metabolism function-associated genes indicated by global transcriptome analysis, Applicant hypothesized that FFA exposure naturally triggers an inflammation response and resulting fibrotic response in HLO. To test this hypothesis, Applicant treated HLO for 3 to 5 days with FFA. […] To first compare the effect of multiple FFAs including oleic acid (OA, 18:1 n9), linoleic acid (LA, 18:2), palmitic acid (PA, 16:0), and stearic acid (SA, 18:0) on lipids accumulation, live-cell imaging was performed with lipid dye BODIPY at 3 days after the FFA exposure. […] Considering that OA triggers massive lipid accumulation, the concentration of OA was varied (0, 200, 400, and 800 μM) to trigger inflammatory reaction in sHLO. […] In addition to increase in lipid accumulation, the size of lipid droplets was enlarged (FIG. 4, B). Hepatocyte ballooning (enlargement) was one of the pathological grading indicators to determine the nonalcoholic steatohepatitis (NASH) activity (NAS scoring), which was confirmed in 800 μM OA treated sHLO by live imaging of cellular membrane (FIG., 4B). Triglycerides, a main constituent of lipids accumulated in the liver, were also detected in 800 μM treated sHLO, but not in untreated sHLO (FIG. 4, D). […] As FIG. 9 indicates, neither E-cad positive nor negative cells derived spheroids produced P3NP and IL-6 secreted production and overexpressed the gene expression of inflammatory markers.
# (§3) Phagocyte, lipids, ROS live-cell imaging. After being cultured in an ultra-low attachment 6 multi-well plate, 5-10 HLO were picked up and seeded in a Microslide 8 Well Glass Bottom plate (Ibidi, WI, USA) and subjected to live-cell staining. The following antibodies were used: pHrodo® Red S. aureus Bioparticles® Conjugate for Phagocyte activity (Thermo Fisher Scientific Inc.), BODIPY® 493/503 for lipids (Thermo Fisher Scientific Inc.), Di-8-ANEPPS for membrane (Thermo Fisher Scientific Inc.), and CellROX green reagent for ROS detection (Thermo Fisher Scientific Inc.). […] The final lipid droplet volume was calculated by IMARIS8 and normalized by each organoid size. Significance testing for lipid droplet volume and ROS production (%) was conducted by Student's t-test.
# LPS and FFA exposure and OCA and FGF19 treatment. 20-30 HLO, which had been isolated from Matrigel and washed by 1×PBS, were divided into each condition and cultured on an ultra-low attachment 6 multi-well plates (Corning). HLO were cultured with LPS (Sigma), OA (Sigma), LA (Sigma), SA (Sigma), or PA (Sigma) and collected at day 1 and 3 (for LPS HLO) and at day 3 and 5 (for OA) after the culture. To test the inhibitory effect of OCA (INT-747, MedChem Express, NJ, USA) and human FGF19 recombinant (Sigma) on HLO, 20-30 HLO were cultured in HCM media in the presence or absence of oleic acid (800 μM), and 1 μM OCA and 40 ng/ml FGF19 were added into 800 μM OA condition. HLO were collected at day 3 for lipids live-cell imaging and at day 5 for stiffness measurement.
# [3] = tested on: human liver organoid (HLO); test: HLO stiffness measurement by AFM; format: cell-based
# Source text: Applicant's preliminary qualitative analysis of smooth muscle actin immunostaining indicates dose dependent fibrosis progression by OA exposure (FIG. 2, H, I, and J). To gain more quantitative insights in a screenable format, Applicant thus assessed in the living state whether HLO fibrosis could increase the stiffness in a dose dependent fashion using micro-indentation with Atomic Force Microscopy (AFM). […] The Emedian values were 1.2 kPa, 1.6 kPa, 2.4 kPa and 2.8 kPa for 0, 200, 400, and 800 μM OA-treated organoids, respectively. Furthermore, difference between 90th percentile and 10th percentile (ΔP90-10) was 3.2 kPa for untreated organoids and 7.0 kPa for 800 μM OA-treated organoids was observed.
# HLO stiffness measurement by AFM. HLOs treated with […] were used for stiffness measurement with a AFM (NanoWizard IV, JPK Instruments, Germany). The AFM head with a silicon nitride cantilever (CSC37, k=0.3 N/m, MikroMasch, Bulgaria) was mounted on a fluorescence stereo microscope (M205 FA, Leica, Germany) coupled with a Z-axis piezo stage (JPK CellHesion module, JPK Instruments, Germany), which allows the indentation measurement up to the depth of ˜100 μm. As a substrate for organoids, a fibronectin-coated dish was used. The tissue culture dish (p=34 mm, TPP Techno Plastic Products, Switzerland) was first incubated with a 1 μg/mL fibronectin solution (Sigma)) at 4° C. for overnight. Then, the tissue culture dish was washed twice by distilled water and dried for 1 hour. Thereafter, HLOs incubated with […] were deposited to the fibronectin-coated dish and incubated for 1 hour at 37° C. The sample dish was then placed onto the AFM stage, and force-distance curves in a 14×14 matrix in a 25×25 μm square were measured from each HLO. Finally, Young's moduli (E, Pa) of HLO were determined by fitting the obtained force-distance curves with the modified Hertz model (Sneddon, 1965). Dunn-Holland-Wolfe test was performed for significance testings.
# [4] = tested on: human liver organoid (HLO); test: Masson trichrome stain of HLO; format: cell-based
# Description: To further determine whether HLO progresses towards fibrosis-like condition, Applicant performed Masson trichrome stain on sHLO and cHLO. […] Moreover, ELISA of […] was also measured at day 5 of OA exposure. […] secretion was increased 2.8-fold in the culture media of 800 μM OA treated HLO when compared with the untreated (FIG. 4, J).
# THP-1 = THP-1 cell migration assay with HLO conditioned media; format: cell-based, human; settings: OA-treated sHLO conditioned media (400, 800 μM OA), 24 hrs in transwells
# Description: THP-1 cell migration assay. THP-1 cell, which was gifted from T. Suzuki, was maintained in Advanced DMEM/F12 (Thermo Fisher Scientific Inc.) containing 10% FBS. THP-1 floating cells were collected, and 200,000 cells were added with serum-free Advanced DMEM/F12 to the membrane chamber of the CytoSelect™ 96-Well Cell Migration Assay (5 μm, Fluorometric Format; Cell Biolabs, CA, USA). 10-20 HLO were cultured in HCM media including 0, 400, 800 uM OA with an ultra-low attachment 96 multi-well plate (Corning) for three days. To define the exact number of organoids in each well and lastly normalize the final migrated cells by the number, the organoids were captured on The KEYENCE BZ-X710 Fluorescence Microscope. 150 μL of culture supernatant of HLO was collected and added to the feeder tray of the kit. The kit was incubated at 37° C. for 24 h in a 5% CO2 cell culture incubator. Cells that had migrated were counted using Countess II FL Automated Cell Counter (Thermo Fisher Scientific Inc.). Significance testing was conducted by Student's t-test.
# [5] = tested on: human iPSC-liver organoid; test: Albumin ELISA of organoid culture supernatant; format: cell-based; settings: 4 days RA; supernatant collected in 24 hrs
# Description: as §2
# [6] = tested on: human iPSC-liver organoid; test: RA-based liver organoid differentiation (organoid number, size, luminal structure); format: cell-based; settings: 4 days RA
# Source text: To elucidate whether RA signaling has an impact on determining the lineage differentiation towards stromal cells, Applicant established a liver organoid model from human iPSCs by transient induction of RA. Applicant initially differentiated iPSCs to foregut spheroids through definitive endoderm (DE) specification as previously described (Spence et al., 2011). The foregut spheroids were mixed with the attached cells grown in the same well, and the mixture was embedded in Matrigel. […] The number of organoids was increased 1.8-fold in RA treated wells compared to untreated and the size was increased 1.5-fold after RA treatment (FIG. 1, B, C, and D). […] Of note, albumin secretion was maintained more than 40 days after day 20 when albumin was first detected (data not shown).
# HLO induction. At day 7, spheroids and attached cells are gently pipetted to be delaminated from dishes. They were centrifuged at 800 rpm for 3 minutes, embedded in a 100% Matrigel drop on the dishes in Advanced DMEM/F12 with B27, N2 and 2 uM retinoic acid (RA; Sigma, MO, USA) after removing supernatant, and cultured for 4 days. After RA treatment, spheroids embedded in the Matrigel drop were cultured in Hepatocytes Culture Medium (HCM; Lonza, MD, USA) with 10 ng/mL hepatocyte growth factor (HGF; PeproTech, NJ, USA), 0.1 uM Dexamethasone (Dex; Sigma) and 20 ng/mL Oncostatin M (OSM; R&D Systems). Cultures for HLO induction were maintained at 37° C. in 5% CO2 with 95% air and the medium was replaced every 2-3 days. To analyze HLO (day 20-30), organoids were isolated from Matrigel by scratching and pipetting.
# liver organoids = test: ROS live-cell imaging of liver organoids; format: cell-based, human
# Source text: as §3
smiles,measurement,setting,value
"CCCCCCCC/C=C\CCCCCCCC(=O)O [OA, oleic acid]",TNF-alpha gene expression increase,TNF-alpha,2 fold
same,P3NP secretion compared with the untreated,P3NP,2.8 fold
same,IL-8 gene expression increase,IL-8,10 fold
same,IL-6 secretion compared to the untreated,IL-6,2.2 fold
same,triglycerides,[1],detected
same,"lipid accumulation, increase in sHLO","[2]; 0, 200, 400, 800 μM OA, 3 days, dose dependent",up to 18 fold
same,hepatocyte ballooning (enlargement),"[2]; 800 μM OA treated sHLO, live imaging of cellular membrane",confirmed
same,"effectiveness in inducing lipid accumulation among FFAs (OA, LA, PA, SA)",[2],most effective
same,size of lipid droplets,"[2]; OA treated sHLO, 3 days",enlarged
same,"Young's modulus, Emedian",[3]; 200 μM OA,1.6 kPa
same,"Young's modulus, Emedian",[3]; 400 μM OA,2.4 kPa
same,"Young's modulus, Emedian",[3]; 800 μM OA,2.8 kPa
same,difference between 90th percentile and 10th percentile (ΔP90-10) of Young's modulus,[3]; 800 μM OA,7.0 kPa
same,trichrome positive HLO,[4]; cHLO (OA 5 days),significantly increased
same,trichrome positive HLO,[4]; sHLO (OA 3 days),not observed
same,"THP-1 migration cells, increase",THP-1,up to 2 fold
"CC1=C(/C=C/C(C)=C/C=C/C(C)=C/C(=O)O)C(C)(C)CCC1 [RA, retinoic acid]",albumin secretion,[5],3.0 to 6.5 µg/mL
same,"number of organoids, increase compared to untreated",[6]; day 20,1.8 fold
same,"organoid size, increase after treatment",[6]; day 20,1.5 fold
same,organoids with internal luminal structure,[6]; day 25,95%
"CCCCCCCCCCCCCCCCCC(=O)O [SA, stearic acid]","effectiveness in inducing lipid accumulation among FFAs (OA, LA, PA, SA)",[2],least effective
Oc1ccc(C=Cc2cc(O)cc(O)c2)cc1 [resveratrol],effect on ROS production of liver organoids,liver organoids,No effectiveness

# From US20200056157A1, “LIVER ORGANOID DISEASE MODELS AND METHODS OF MAKING AND USING SAME” (Children's Hospital Medical Center, priority 2016, published 2020)
